Assays:
[1] = tested on: bacterial isolate 180507-1 (IDAC); assay type: cell-based
[2] = tested on: bacterial isolate 180507-1 (IDAC)

Molecule	Reaction (sensitivity of the isolate) [1]	degradation by the selected isolate (deepoxidation and/or deacylation) [2]
Vancomysin	Sensitive	
CC1=C[C@H]2O[C@@H]3[C@H](O)[C@@H](O)[C@](C)([C@@]2(CO)C[C@@H]1OC(=O)CC(C)C)[C@]31CO1 [T-2 triol]		degraded
CC(=O)O[C@@H]1[C@@H](O)[C@H]2O[C@@H]3C=C(C)C(=O)[C@@H](O)[C@]3(CO)[C@]1(C)[C@]21CO1 [fusarenon X]		degraded
CC(=O)OC[C@]12C[C@H](O)C(C)=C[C@H]1O[C@@H]1[C@H](O)[C@@H](OC(C)=O)[C@@]2(C)[C@]12CO2 [neosolaniol]		degraded
4-diacetoxyscirpenol		degraded
CC(=O)OC[C@]12[C@H](O)C(=O)C(C)=C[C@H]1O[C@@H]1[C@H](O)C[C@@]2(C)[C@]12CO2 [15-acetyldeoxynivalenol]		degraded
CC(=O)OC[C@]12C[C@H](OC(=O)CC(C)C)C(C)=C[C@H]1O[C@@H]1[C@H](O)[C@@H](O)[C@@]2(C)[C@]12CO2 [HT-2 toxin]		degraded
CC1=C[C@H]2O[C@@H]3[C@H](O)[C@@H](O)[C@](C)([C@@]2(CO)[C@H](O)C1=O)[C@]31CO1 [nivalenol]		degraded
CC(=O)O[C@@H]1C[C@]2(C)[C@@]3(CO)[C@H](O)C(=O)C(C)=C[C@H]3O[C@H]1[C@@]21CO1 [3-acetyldeoxynivalenol]		degraded
CC(=O)OCC12CCC(C)=CC1OC1C(O)C(O)C2(C)C12CO2 (stereo not shown) [15-monoacetoxyscirpenol]		degraded
